These results are taken from patent publication US6414147B1, “2-amino-9-alkylpurines: GABA brain receptor ligands” (Neurogen Corporation, priority 1998, dated 2002).

Take `CCCCn1cnc2c(OCCF)nc(Nc3ccc(OC)nc3)nc21` [compound 58, 2-[(2-Methoxypyrid-5-yl)amino]-6-(2-fluoroethoxy)-9-butyl-9H-purine]: the melting point (in general, the temperature of the solid-liquid transition) is 163 to 164 °C.

Regarding `CCCCn1cnc2c(OCC(F)F)nc(Nc3ccc(OC)nc3)nc21` [compound 59, 2-[(2-Methoxypyrid-5-yl)amino]-6-(2,2-difluoroethoxy)-9-butyl-9H-purine], the melting point was 165 to 167 °C. Take `CCCCn1cnc2c(OCC(C)C)nc(Nc3ccc(OC)nc3)nc21` [compound 60, 2-[(2-Methoxypyrid-5-yl)amino]-6-(2-methylprop-1-oxy)-9-butyl-9H-purine]: the melting point was 88 to 90 °C. The same measure for `C=CCOc1nc(Nc2ccc(OC)nc2)nc2c1ncn2CCCC` [compound 61, 2-[(2-Methoxypyrid-5-yl)amino]-6-(2-propen-1-oxy)-9-butyl-9H-purine]: 174 to 176 °C.

As for `CCCCn1cnc2c(OCC3CCCO3)nc(Nc3ccc(OC)nc3)nc21` (stereo not shown) [compound 62, 2-[(2-Methoxypyrid-5-yl)amino]-6-tetrahydrofurfuryloxy-9-butyl-9H-purine], the melting point lay in the range of 147 to 149 °C.

The compound `CCCCn1cnc2c(OCc3ccccn3)nc(Nc3ccc(OC)nc3)nc21` [compound 63, 2-[(2-Methoxypyrid-5-yl)amino]-6-(pyrid-2-ylmethoxy)-9-butyl-9H-purine] displayed a melting point of 150 to 153 °C. The same measure for `CCCCn1cnc2c(Oc3ccccc3)nc(Nc3ccc(OC)nc3)nc21` [compound 64, 2-[(2-Methoxypyrid-5-yl)amino]-6-phenoxy-9-butyl-9H-purine]: 146 to 148 °C; for `CCCn1cnc2c(OCC(C)C)nc(Nc3ccc(OC)nc3)nc21` [compound 65, 2-[(2-Methoxypyrid-5-yl)amino]-6-(2-methylprop-1-oxy)-9-propyl-9H-purine]: 113 to 115 °C. As for `CCCn1cnc2c(Oc3ccccc3)nc(Nc3ccc(OC)nc3)nc21` [compound 66, 2-[(2-Methoxypyrid-5-yl)amino]-6-phenoxy-9-propyl-9H-purine], the melting point was in the range of 188 to 190 °C.

Compound `C=C(C)COc1nc(Nc2ccc(OC)nc2)nc2c1ncn2CCCC` [compound 67, 2-[(2-Methoxypyrid-5-yl)amino]-6-(2-methyl-2-propen-1-oxy)-9-butyl-9H-purine] showed a melting point of 131 to 133 °C. The same measure for `CCCCn1cnc2c(OCC3CC3)nc(Nc3ccc(OC)nc3)nc21` [compound 68, 2-[(2-Methoxypyrid-5-yl)amino]-6-cyclopropylmethoxy-9-butyl-9H-purine]: 148 to 150 °C. The compound `C=CCSc1nc(Nc2ccc(OC)nc2)nc2c1ncn2CCCC` [compound 69, 2-[(2-Methoxypyrid-5-yl)amino]-6-allylthio-9-butyl-9H-purine] registered a melting point of 107 to 109 °C. Consider `CCCCn1cnc2c(OCC)nc(Nc3ccc(OCC)nc3)nc21` [compound 71, 2-[(2-Ethoxypyrid-5-yl)amino]-6-ethoxy-9-butyl-9H-purine], for which the melting point fell in the range of 167 to 169 °C.

Turning to `CCCCn1cnc2c(OCCOC)nc(Nc3ccc(OCC)nc3)nc21` [compound 72, 2-[(2-Ethoxypyrid-5-yl)amino]-6-(2-methoxyethoxy)-9-butyl-9H-purine], the melting point was in the range of 123 to 125 °C.

`C=CCOc1nc(Nc2ccc(OCC)nc2)nc2c1ncn2CCCC` [compound 73, 2-[(2-Ethoxypyrid-5-yl)amino]-6-(2-propen-1-oxy)-9-butyl-9H-purine]: the melting point was in the range of 158 to 160 °C. To `CCCCn1cnc2c(OCCF)nc(Nc3ccc(OCC)nc3)nc21` [compound 74, 2-[(2-Ethoxypyrid-5-yl)amino]-6-(2-fluoroethoxy)-9-butyl-9H-purine] belongs 156 to 157 °C; to `C=C(C)COc1nc(Nc2ccc(OCC)nc2)nc2c1ncn2CCCC` [compound 75, 2-[(2-Ethoxypyrid-5-yl)amino]-6-(2-methyl-2-propen-1-oxy)-9-butyl-9H-purine], 108 to 110 °C; to `CCCCn1cnc2c(OCc3cccs3)nc(Nc3ccc(OCC)nc3)nc21` [compound 76, 2-[(2-Ethoxypyrid-5-yl)amino]-6-(thien-2-ylmethoxy)-9-butyl-9H-purine], 116 to 118 °C. `C=C(C)COc1nc(Nc2ccc(OCC)nc2)nc2c1ncn2CCC` [compound 77, 2-[(2-Ethoxypyrid-5-yl)amino]-6-(2-methyl-2-propen-1-oxy)-9-propyl-9H-purine] yielded a melting point of 112 to 114 °C. With `C#CCOc1nc(Nc2ccc(OCC)nc2)nc2c1ncn2CCCC` [compound 78, 2-[(2-Ethoxypyrid-5-yl)amino]-6-(2-propyn-1-oxy)-9-butyl-9H-purine], the melting point was 151 to 153 °C.

Take `CCCCn1cnc2c(OCC(F)F)nc(Nc3ccc(OCC)nc3)nc21` [compound 80, 2-[(2-Ethoxypyrid-5-yl)amino]-6-(2,2-difluoroethoxy)-9-butyl-9H-purine]: the melting point lay in the range of 151 to 152 °C. Take `CCCCn1cnc2c(OCC(=O)OCC)nc(Nc3ccc(OCC)nc3)nc21` [compound 82, 2-[(2-Ethoxypyrid-5-yl)amino]-6-carboethoxymethoxy-9-butyl-9H-purine]: the melting point fell in the range of 77 to 80 °C. In the case of `CCCCn1cnc2c(OCC(C)C)nc(Nc3ccc(OCC)nc3)nc21` [compound 83, 2-[(2-Ethoxypyrid-5-yl)amino]-6-(2-methylprop-1-oxy)-9-butyl-9H-purine], the melting point lay within 96 to 98 °C. To `CCCCn1cnc2c(OCCO)nc(Nc3ccc(OCC)nc3)nc21` [compound 84, 2-[(2-Ethoxypyrid-5-yl)amino]-6-(2-hydroxyethoxy)-9-butyl-9H-purine] belongs 166 to 168 °C. Regarding `CCCCn1cnc2c(OCC)nc(Nc3cnc4ccccc4c3)nc21` [compound 86, 2-[(Quinolin-3-yl)amino]-6-ethoxy-9-butyl-9H-purine], the melting point lay in the range of 186 to 188 °C. To `CCCCn1cnc2c(OCCC)nc(Nc3cnc4ccccc4c3)nc21` [compound 87, 2-[(Quinolin-3-yl)amino]-6-propoxy-9-butyl-9H-purine] belongs 215 to 220 °C. On to `CCCCn1cnc2c(OCCOC)nc(Nc3cnc4ccccc4c3)nc21` [compound 88, 2-[(Quinolin-3-yl)amino]-6-(2-methoxyethoxy)-9-butyl-9H-purine], for which the melting point fell in the range of 161 to 163 °C.

On to `CCCCn1cnc2c(OCC(C)C)nc(Nc3cnc4ccccc4c3)nc21` [compound 89, 2-[(Quinolin-3-yl)amino]-6-(2-methylprop-1-oxy)-9-butyl-9H-purine], for which the melting point lay in the range of 68 to 71 °C. Compound `C=C(C)COc1nc(Nc2cnc3ccccc3c2)nc2c1ncn2CCCC` [compound 91, 2-[(Quinolin-3-yl)amino]-6-(2-methyl-2-propen-1-oxy)-9-butyl-9H-purine] returned a melting point of 106 to 108 °C.

In turn, `C=CCOc1nc(Nc2cnc3ccccc3c2)nc2c1ncn2CCCC` [compound 92, 2-[(Quinolin-3-yl)amino]-6-(2-propen-1-oxy)-9-butyl-9H-purine] registered a melting point of 188 to 192 °C. With `CCCCn1cnc2c(OCCF)nc(Nc3cnc4ccccc4c3)nc21` [compound 93, 2-[(Quinolin-3-yl)amino]-6-(2-fluoroethoxy)-9-butyl-9H-purine], the melting point lay within 181 to 183 °C. The same measure for `CCCCn1cnc2c(OC)nc(Nc3ccc4c(c3)OCO4)nc21` [compound 95, 2-[(3,4-Methylenedioxyphenyl)amino]-6-methoxy-9-butyl-9H-purine]: 160 to 161 °C; for `CCCCn1cnc2c(OCC)nc(Nc3ccc4ncsc4c3)nc21` [compound 96, 2-[(Benzothiazol-6-yl)amino]-6-ethoxy-9-butyl-9H-purine]: 150 to 152 °C; for `CCCCn1cnc2c(OCC)nc(NCc3ccc(OC)cc3)nc21` [compound 97, 2-[(4-Methoxybenzyl)amino]-6-ethoxy-9-butyl-9H-purine]: 129 to 130 °C.
